Data as given in paper PMC4533973, “Synthesis and Evaluation of Chloramphenicol Homodimers: Molecular Target, Antimicrobial Activity, and Toxicity against Human Cells” (PLoS ONE, 2015).

Key:
[1] = system: post-translocation ribosomal complex (complex C) derived from E. coli; assay: Inhibition of peptide-bond formation (puromycin reaction, AcPhe-puromycin synthesis); format: biochemical; settings: for k6 / k6/k7 / k7: S1 Table; for Ki: 25°C, buffer A; for k off: nonlinear regression of k eq; for activity compared to CAM: ranking by K i*
Method: The inhibitory effect of CAM dimers on peptide-bond formation was studied using the puromycin reaction, a model reaction between puromycin and a post-translocation ribosomal complex (complex C) derived from E. coli. Since puromycin, a pseudo-substrate of PTase which binds to the A-site of the catalytic center, was present in excess, the reaction obeyed first-order kinetics. The first-order rate constant, k obs, at each concentration of puromycin was determined by fitting the x values into Eq 1, ln100/100−x=kobst (1) where x is the product AcPhe-puromycin, expressed as the percentage of complex C added in the reaction mixture, and t is the time of the reaction.
A representative time plot obtained at 400 μM puromycin, in the absence of inhibitor, is illustrated in Fig 3A (upper line) and, as expected, is characterized by linearity. However, when the reaction proceeded in the presence of a CAM dimer, e.g. compound 5, the time plots were characterized by two unique features that distinguish them from a typical kinetic behavior. […] Second, the slopes of both progress curves varied as a function of the inhibitor concentration (Fig 3A, four lower curves). […] These kinetic results are consistent with compound 5 operating through an induced fit mechanism (Fig 3C), in which the inhibitor first binds rapidly to complex C to form the encounter complex CI, which then undergoes a slow conformational change to produce a final, tighter complex C*I. Corroborative evidence for the consistency of this model is provided by the hyperbolic shape of the equilibration plots (k eq versus [I]), in which k eq represents the apparent rate constant for the attainment of equilibrium among C, CI, and C*I (Fig 3B). If one-step mechanism of inhibition was applicable (C + I ⇄ C*I), k eq should be a linear function of [I] [27]. […] Because the isomerization constant k on/k off was calculated to be 3.6, the inhibition process was finally associated with high overall inhibition of peptide-bond formation (Ki* = 0.3 μM; S1 Fig, panel C). In addition, the slow k off rate (0.64 min^-1) provided prolonged residence time for compound 5 at the ribosome, a behavior potentially predicting good efficacy in vivo [28].
The puromycin reaction, i.e. the reaction between complex C and excess puromycin (S), was carried out at 25°C in buffer A [100 mM Tris-HCl pH 7.2, 6 mM (CH3COO)2Mg, 100 mM NH4Cl and 6 mM 2-mercaptoethanol]. Under these conditions, the puromycin reaction obeys C + S ⇄KS CS→kcat C^′ + S pseudo-first-order kinetics and was analyzed as previously described.
In the presence of CAM dimers, biphasic semi-logarithmic time plots were obtained. The slope of the straight line through the origin was seen as the value of the apparent rate constant, k obs(early), at the early phase of the reaction. Similarly, the slope of the second straight line was taken as the apparent rate constant, k obs(late), at the late phase of the puromycin reaction.

[2] = system: P. aeruginosa (GRE5288); assay: Antibacterial activity (growth inhibition, EC50); format: cell-based, Pseudomonas aeruginosa; settings: Pseudomonas aeruginosa; TSB medium; clinical isolate with MexAB-OprM and MexXY efflux; read-out: EC50
Text: (§1) A.S. Mankin (University of Illinois). E. coli ΔtolC strain BL21 DE3 with impaired AcrAB-TolC, a proton-dependent MDR efflux pump causing multidrug resistance, was offered by Dr D.N. Wilson (University of Munich) and included in our study to test if this mechanism of resistance affects the efficacy of CAM dimers. […] I. Spiliopoulou (National Reference Laboratory for Staphylococci, School of Medicine, University of Patras, Greece). Finally, E. coli strain Rosetta(DE3)pLysS, containing a chloramphenicol resistant gene in the pLysS plasmid, was purchased from Novagen and was also included in our study. Briefly, S. aureus or E. coli cells (200 μl of a 0.700 OD560 preculture) containing wild-type or mutant ribosomes were added in 3.8 ml of LB (Luria-Bertani) medium and grown at 37°C in the presence or absence of CAM or CAM dimers until the optical density of the control culture (grown in the absence of drug) reached the value 0.700 at 560 nm. For E. faecium and P. aeruginosa cultures, TSB (Tryptic Soy Broth) medium was used, instead of LB medium, in order to achieve exponential doubling times between 25 and 35 minutes. From dose-response curves, the half-maximal effective concentration (EC50) for each compound and strain was estimated. EC50 represents the molar concentration of a compound that produces 50% of the maximal possible effect. The EC50 values were mathematically determined by non linear regression fitting of the observed culture optical-density values, expressed as the percentage of 0.700 (y), into Hill Equation, y=min+max−min/1+(x/EC50)^−n where min and max are the lowest and highest observed values of the culture optical density, respectively, x the concentration of the tested compound, and n the Hill coefficient that represents the largest absolute value of the curve slope. EC50 is equal to the x- value of the sigmoid’s midpoint. Fitting was performed using the Four Parameter Logistic Curve of the SigmaPlot Program Version 11.0 (Systat Software, Inc) for Exact Graphs and Data Analysis.

[3] = system: E. coli (WT); assay: Antibacterial activity (growth inhibition, EC50); format: cell-based, Escherichia coli; settings: for EC50: Escherichia coli, LB medium, 37°C, OD560; for EC50(cell growth)/IC50(puro): wild-type E. coli, IC50(puro) calculated from Ki* at 2 mM puromycin
Text: as §1

[4] = system: E. coli (A2503C); assay: Antibacterial activity (growth inhibition, EC50); format: cell-based, Escherichia coli; settings: Escherichia coli
Text: as §1

[5] = system: E. coli Rosetta(DE3)pLysS; assay: Antibacterial activity (growth inhibition, EC50); format: cell-based, Escherichia coli; settings: Escherichia coli
Text: as §1

[6] = system: E. coli (A2058G); assay: Antibacterial activity (growth inhibition, EC50); format: cell-based, Escherichia coli; settings: Escherichia coli
Text: as §1

[7] = system: E. coli (ΔtolC); assay: Antibacterial activity (growth inhibition, EC50); format: cell-based, Escherichia coli; settings: Escherichia coli, BL21-DE3
Text: as §1

[8] = system: MRSA (GRE2272); assay: Antibacterial activity (growth inhibition, EC50); format: cell-based; settings: Staphylococcus aureus, LB medium, 37°C, OD560, read-out: EC50
Text: as §1

[9] = system: MRSA (GRE2691); assay: Antibacterial activity (growth inhibition, EC50); format: cell-based; settings: Staphylococcus aureus, LB medium, 37°C, OD560, read-out: EC50
Text: as §1

[10] = system: E. faecium (GRE5152); assay: Antibacterial activity (growth inhibition, EC50); format: cell-based; settings: Enterococcus faecium; TSB medium, 37°C, OD560; read-out: EC50
Text: as §1

[11] = system: S. aureus (WT); assay: Antibacterial activity (growth inhibition, EC50); format: cell-based; settings: Staphylococcus aureus; LB medium, 37°C, OD560; read-out: EC50
Text: as §1

[12] = overall inhibition constant (CI + C*I)

Row | Compound | k6 [1] | k6/k7 [1] | k7 [1] | EC50 [2] | melting point | EC50 [3] | EC50(cell growth)/IC50(puro) [3] | EC50 [4] | EC50 [5] | EC50 [6] | EC50 [7] | EC50 [8] | EC50 [9] | EC50 [10] | EC50 [11] | Ki ([1]; encounter complex CI) | k off [1] | Ki [1, 12] | activity compared to CAM [1]
1 | O=C(O)CCCC(=O)N[C@H](CO)[C@H](O)c1ccc([N+](=O)[O-])cc1 [Compound 9, 5-(((1R,2R)-1,3-dihydroxy-1-(4-nitrophenyl)propan-2-yl)amino)-5-oxopentanoic acid] | 2.50 ± 0.33 min⁻¹ | 1.53 ± 0.18 | 1.63 ± 0.12 min⁻¹ | – | – | – | – | – | – | – | – | – | – | – | – | – | – | – | –
2 | O=C(CCCCCCC(=O)N[C@H](CO)[C@H](O)c1ccc([N+](=O)[O-])cc1)N[C@H](CO)[C@H](O)c1ccc([N+](=O)[O-])cc1 [Compound 6, N^1,N^8-Bis((1R,2R)-1,3-dihydroxy-1-(4-nitrophenyl)propan-2-yl)octane-diamide] | – | – | – | > 100 µM | 131 to 132 °C | > 200 µM | >14.5 | > 200 µM | > 200 µM | > 200 µM | > 200 µM | > 200 µM | > 200 µM | > 200 µM | 49.6 ± 5.4 µM | 10500 ± 900 nM | 0.80 ± 0.04 min⁻¹ | 2300 ± 200 nM | lower
3 | O=C(CC(=O)N[C@H](CO)[C@H](O)c1ccc([N+](=O)[O-])cc1)N[C@H](CO)[C@H](O)c1ccc([N+](=O)[O-])cc1 [Compound 1, N^1,N^3-Bis((1R,2R)-1,3-dihydroxy-1-(4-nitrophenyl)propan-2-yl)malonamide] | – | – | – | > 100 µM | 142 to 143 °C | > 200 µM | >55.5 | > 200 µM | > 200 µM | > 200 µM | > 200 µM | > 200 µM | > 200 µM | > 200 µM | 32.2 ± 1 µM | 2400 ± 180 nM | 0.60 ± 0.05 min⁻¹ | 600 ± 50 nM | comparable
4 | O=C(CCCC(=O)N[C@H](CO)[C@H](O)c1ccc([N+](=O)[O-])cc1)N[C@H](CO)[C@H](O)c1ccc([N+](=O)[O-])cc1 [Compound 3, N^1,N^5-Bis((1R,2R)-1,3-dihydroxy-1-(4-nitrophenyl)propan-2-yl)glutaramide] | – | – | – | 42.4 ± 8.7 µM | – | 52.4 ± 6.8 µM | 7.28 ± 1.08 | 68.1 ± 13.8 µM | 65.1 ± 6.6 µM | 47.3 ± 6.9 µM | 43.7 ± 5.2 µM | 20.8 ± 2.5 µM | 27.2 ± 3.4 µM | 69.8 ± 14.8 µM | 17.4 ± 1.3 µM | 4500 ± 360 nM | 1.00 ± 0.03 min⁻¹ | 1200 ± 90 nM | lower
5 | O=C(/C=C/c1ccc(/C=C/C(=O)N[C@H](CO)[C@H](O)c2ccc([N+](=O)[O-])cc2)cc1)N[C@H](CO)[C@H](O)c1ccc([N+](=O)[O-])cc1 [Compound 8, N,N^’-Bis((1R,2R)-1,3-dihydroxy-1-(4-nitrophenyl)propan-2-yl)-1,4-phenylene diacryldiamide] | – | – | – | > 100 µM | 144 to 145 °C | > 200 µM | – | > 200 µM | > 200 µM | > 200 µM | > 200 µM | > 200 µM | > 200 µM | > 200 µM | > 200 µM | – | – | – | no activity
6 | O=C(/C=C/C(=O)N[C@H](CO)[C@H](O)c1ccc([N+](=O)[O-])cc1)N[C@H](CO)[C@H](O)c1ccc([N+](=O)[O-])cc1 [Compound 2, N^1,N^4-Bis((1R,2R)-1,3-dihydroxy-1-(4-nitrophenyl)propan-2-yl)fumaramide] | – | – | – | > 100 µM | 207 to 208 °C | > 200 µM | >44.4 | > 200 µM | > 200 µM | > 200 µM | > 200 µM | > 200 µM | > 200 µM | > 200 µM | 44.4 ± 2.9 µM | 2700 ± 250 nM | 0.70 ± 0.05 min⁻¹ | 750 ± 60 nM | comparable
7 | O=C(O)CCCCC(=O)N[C@H](CO)[C@H](O)c1ccc([N+](=O)[O-])cc1 [Compound 10, 6-(((1R,2R)-1,3-dihydroxy-1-(4-nitrophenyl)propan-2-yl)amino)-6-oxohexanoic acid] | 2.52 ± 0.40 min⁻¹ | 2.25 ± 0.27 | 1.11 ± 0.12 min⁻¹ | – | – | – | – | – | – | – | – | – | – | – | – | – | – | – | –
8 | O=C(O)c1ccc(C(=O)N[C@H](CO)[C@H](O)c2ccc([N+](=O)[O-])cc2)cc1 [Compound 11, 4-(((1R,2R)-1,3-dihydroxy-1-(4-nitrophenyl)propan-2-yl)carbamoyl)benzoic acid] | 2.31 ± 0.48 min⁻¹ | 1.63 ± 0.31 | 1.42 ± 0.13 min⁻¹ | – | – | – | – | – | – | – | – | – | – | – | – | – | – | – | –
